Test [1] concerns Pooled normal plasma. As to the kind of experiment: Thrombelastography of tissue factor-activated pooled normal plasma (Example 1). Type of test: biochemical, human. As to the method:
Pooled normal plasma (George King Bio-Medical, Overland Park, Kans., USA) anticoagulated with sodium citrate was utilized for experimentation. The lot of plasma used for all experimentation was #1853, with a prothrombin time of 12.3 sec, an activated partial thromboplastin time of 29.3 sec, and a fibrinogen concentration >250 mg/dl. The final volume for all subsequently described plasma sample mixtures was 359.2 μl. Sample composition consisted of 322 μl of plasma; 10 μl of tissue factor reagent (0.1% final concentration in dH2O; Instrumentation Laboratory, Lexington, Mass., USA), 3.6 μl of dH2O or dH2O containing the organic reductant phenylhydroxylamine (PHA, 0-30 mM final concentration, Sigma-Aldrich, Saint Louis, Mo., USA), 3.6 μl of dimethyl sulfoxide (DMSO) or DMSO with CORM-2 (0-400 μM final concentration; Sigma-Aldrich) and 20 μl of 200 mM CaCl2. PHA was chosen as the agent to convert fibrinogen-associated, heme-bound Fe^+2 to an Fe^+3 state (1978, Castro et al., Biochemistry 17:225-231; 1986, Harrison and Jollow, J Pharmacol Exp Ther 238:1045-1054; 1987, Harrison and Jollow, Mol Pharmacol 32:423-431; 1999, Ciccoli et al., Toxicol Lett 110:57-66). Stock solutions of CORM-2 were made just before each experiment. Tissue factor stock solution was kept on ice prior to use and was remade every two hours.
Plasma sample mixtures were placed in a disposable cup in a computer-controlled thrombelastograph hemostasis system (Model 5000, Haemoscope Corp., Niles, Ill., USA), with addition of CaCl2 as the last step to initiate clotting. Data were collected for 15 min at 37° C. Given that final clot strength is the sine quo non of fibrinogen concentration in plasma (2005, Nielsen et al., Acta Anaesthesiol Scand 49:222-231), and that elastic modulus (G, dyne/cm^2) is a measure of strength that can be determined by all commercially available thrombelastographs/thromboelastometers, G values were subsequently recorded for all samples.
Additional elastic modulus-based parameters previously described were determined for some of the experiments (2009, Nielsen et al., Fibrinolysis 20: 377-380; Nielsen et al., in press, Fibrinolysis; 2005, Nielsen et al., Acta Anaesthesiol Scand 49: 222-231; 2009, Nielsen et al., Blood Coagul Fibrinolysis 20: 448-455). The nomenclature used to describe these phenomena is as follows:
Time to maximum rate of thrombus generation (TMRTG): This is the time interval (min) observed prior to maximum speed of clot growth.
Maximum rate of thrombus generation (MRTG): This is the maximum velocity of clot growth observed (dynes/cm^2/sec).
Total Thrombus Generation (TTG): This is the total area under the velocity curve during clot growth (dynes/cm^2), representing the amount of clot strength generated during clot growth.
Thrombelastographic data are presented as mean±SD. Analyses of the effects of PHA before and after CORM-2 addition to plasma were conducted with one way analysis of variance with Holm-Sidak post hoc test (SigmaStat 3.1, Systat Software, Inc., San Jose, Calif., USA). Comparison between plasma exposed to 10 or 30 mM PHA was performed with an unpaired Student's t-test. The plasmatic strength response to increasing concentrations of CORM-2 was analyzed with one way analysis of variance with Holm-Sidakpost hoc test. Graphical representation of the data was generated with commercially available software (Origin 7.5, OriginLab Corp., Northampton, Mass., USA). A P value of <0.05 was considered significant.

The subject of test [2] is Patient plasma; pooled normal plasma. The test can be described thus: Thrombelastography of Heartmate II VAD patient plasma and pooled normal plasma. The format is biochemical, human. Conditions: for change in clot strength (TTG) compared to normal plasma: VAD patient plasma, 100 μM CORM-2 or 30 mM PHA. As to the method: Shortly after induction of anesthesia and invasive monitoring placement, whole blood was collected from the patient's radial arterial catheter and immediately anticoagulated with sodium citrate (9 parts blood:1 part 0.105M sodium citrate). The blood was immediately centrifuged at 3000×g at room temperature, with plasma aliquoted and stored at −80° C. prior to thrombelastographic analyses subsequently described. Operation proceeded, with VAD replacement followed by discharge from the hospital three weeks later.
Patient plasma was subjected to thrombelastographic analysis for 30 min at 37° C. as previously described (Nielsen et al., 2009, Blood Coagul Fibrinolysis, 20: 377-380; Nielsen et al., 2011, Blood Coagul Fibrinolysis, 22: 657-661). Also, for qualitative/semi-quantitative comparison, four replicate samples of citrated, pooled normal plasma (George King Bio-Medical, Overland Park, Kans., USA) were subjected to identical thrombelastographic analyses. In brief, the final volume for all subsequently described plasma sample mixtures was 359.6 Sample composition consisted of 326 μl of plasma; 10 μl of tissue factor reagent (0.1% final concentration in dH2O; Diagnostica Stago S.A.S., Asnieres sur Seine, France), 3.6 μl of dH2O or dH2O containing the organic reductant phenylhydroxylamine (PHA, 30 mM final concentration, Sigma-Aldrich, Saint Louis, Mo., USA), or 3.6 μl of CORM-2 (100 μM final concentration; Sigma-Aldrich) and 20 μl of 200 mM CaCl2. The addition of CORM-2 determines if there are heme groups unbound by CO in plasma by increasing coagulation kinetics (Nielsen et al., 2011, Blood Coagul Fibrinolysis, 22: 657-661). PHA at this concentration rapidly converts heme-attached Fe^+2 to Fe^+3, the met-state, displacing CO and decreasing coagulation (Nielsen et al., 2011, Blood Coagul Fibrinolysis, 22: 657-661). […] Thrombelastographic variables previously described (Nielsen et al., 2009, Blood Coagul Fibrinolysis, 20: 377-380; Nielsen et al., 2011, Blood Coagul Fibrinolysis, 22: 657-661) were determined, and the results are depicted in FIG. 7 and FIG. 8.

Regarding `[C-]#[O+].[C-]#[O+].[C-]#[O+].[C-]#[O+].[C-]#[O+].[C-]#[O+].[Cl][Ru][Cl].[Cl][Ru][Cl]` [CORM-2, tricarbonyldichlororuthenium (II) dimer], the “elastic modulus (G), concentration-response” value in test [1] (0-200 μM CORM-2, 5 min, no PHA) is “sigmoidal increase”. In test [1] (100 μM CORM-2), this compound had an MRTG of 12.4 ± 1.4 dynes/cm^2/sec, a TMRTG of 2.46 ± 0.15 min and a TTG of 272 ± 21 dynes/cm^2. The “elastic modulus (G)” value in test [1] (100 μM CORM-2 vs unexposed plasma) is “significantly increased”. The “difference in G, 200 μM vs 100 μM CORM-2” value in test [1] (no PHA) came out at 10.1%. For the same compound, in test [1] (plasma exposed to 30 mM PHA 2 min, then 100, 200 or 400 μM CORM-2 5 min), the “elastic modulus (G)” value was “no significant increase”. In addition, the “change in clot strength (TTG) compared to normal plasma” value in test [2] is “markedly decreased response”. Besides, in test [2] (normal pooled plasma, 100 μM CORM-2), the “change in clot strength (TTG)” value was “typical increase”.

For the compound `ONc1ccccc1` [PHA, phenylhydroxylamine], the “elastic modulus (G)” value in test [1] (PHA 10 mM 2 min prior to 100 μM CORM-2) is “significantly smaller than plasma not exposed to either compound”; in test [1] (PHA 10 mM alone), “less than the other three conditions”; in test [1] (PHA 30 mM added 5 min after 100 μM CORM-2) it was “not different from plasma not exposed to either compound”; in test [1] (PHA 30 mM alone), “significantly less than the other three conditions”; in test [1] (PHA 10 or 20 mM added 5 min after 100 μM CORM-2), “negligible effects”. Moreover, the values for the MRTG in test [1] (PHA 10 mM alone) and in test [1] (PHA 30 mM alone) were 3.6 ± 0.9 dynes/cm^2/sec and 3.9 ± 0.8 dynes/cm^2/sec, respectively. The TMRTG is recorded as 3.59 ± 0.60 min in test [1] (PHA 10 mM alone) and 3.91 ± 0.70 min in test [1] (PHA 30 mM alone). The TTG is listed as 99 ± 11 dynes/cm^2 in test [1] (PHA 10 mM alone) and 106 ± 8 dynes/cm^2 in test [1] (PHA 30 mM alone). Moreover, in test [1] (PHA 1 or 5 mM 2 min prior to 100 μM CORM-2), the “elastic modulus (G), reduction of CORM-2 mediated increase” value is “little effect”. The “change in clot strength (TTG) compared to normal plasma” value in test [2] was “greater decrease”.
